One test addresses PSMA protein (Homo sapiens, UniProt Q04609). Kind of test: MST binding affinity, Psa-AR and PSMA protein. The note with it: RED-NHS-labeled PSMA 400 nM, PBS-T (0.05% Tween 20), 22 °C, n = 3, read-out: Kd, binding affinity between Psa-AR and PSMA. On the procedure:
Fig. 1 Protein-induced self-assembly behaviors of Psa-AR in vitro. a Six tissue samples from patients with prostate tumors (1–6) and six from patients with normal prostates (1’–6’) were obtained clinically. The expression of CRBN in these samples was analyzed by immunohistochemistry (IHC).
(§1) MST (NanoTemper Technologies GmbH, Munich, Germany) was utilized to evaluate the binding affinity between Psa-AR and RED-NHS-labeled PSMA, AR, or CRBN proteins. The PSMA, AR, and CRBN proteins were labeled with the Protein Labeling Kit RED-NHS 2nd Generation (Amine Reactive). RED-PSMA, RED-AR, and RED-CRBN proteins were diluted to a final concentration of 400 nM with PBS-T buffer (0.05% Tween 20), where the fluorescence signals satisfied the typical detection limit of the Monolith NT.115 instrument (NanoTemper Technologies). The binding affinity between Psa-AR and the RED-NHS-labeled AR protein was assessed. […] Then, 10 µL of RED-CRBN was added to each sample to achieve a final concentration of 400 nM. After incubation for 20 min, the samples were loaded into standard/premium-treated capillaries. All the experiments were performed at 22 °C. The data were analyzed by NanoTemper analysis software.

The subject of test [1] is RWPE-1 (PSMA^low) and 22Rv1 (PSMA^high) cells. Description: Uptake in RWPE-1 versus 22Rv1 cells (flow cytometry, IF). The format is cell-based. As to the method: Fig. 2 a Representative 22Rv1 cell CLSM images of FITC-labeled Psa-AR (40 μM) assembly (green channel) interacting with PSMA (red channel) and its colocalization analysis (1–1’). Scale bar: 10 μm. b Representative SEM images of 22Rv1 cells after treatment with Psa-AR (40 μM) for 4 h. Scale bar: 1 μm. Scale bar: 200 nm (zoom in). c Representative 22Rv1 cell CLSM images of FITC-labeled P-AR (40 μM) (green channel) interacting with PSMA (red channel). Scale bar: 10 μm. d Representative SEM images of 22Rv1 cells after treatment with P-AR (40 μM) for 4 h. Scale bar: 1 μm. Scale bar: 200 nm (zoom in). e The uptake of either Psa-AR or P-AR by 22Rv1 (PSMA^high) and RWPE-1 (PSMA^low) cells was examined by flow cytometry, followed by comprehensive quantitative analysis (f), n = 3 per group. g Representative 22Rv1 cell CLSM images of FITC-labeled Psa-AR assembly (green channel) with lysosomes (red channel) and colocalization analysis. Scale bar: 10 μm. h Representative CLSM images of 22Rv1 cells after incubation with FITC-labeled Psa-AR (green channel) for 12 h. […]
A total of 1 × 10^5 22Rv1 cells per well were seeded in 6-well plates in DMEM containing 10% fetal bovine serum and 1% penicillin‒streptomycin. […] Then, the cells were collected to evaluate fluorescence expression via flow cytometry. […] The cells were then collected and analyzed for fluorescence expression via flow cytometry.

In another test the target is T1, AR protein (Homo sapiens, UniProt P10275).
T1 sequence (P10275 1-920): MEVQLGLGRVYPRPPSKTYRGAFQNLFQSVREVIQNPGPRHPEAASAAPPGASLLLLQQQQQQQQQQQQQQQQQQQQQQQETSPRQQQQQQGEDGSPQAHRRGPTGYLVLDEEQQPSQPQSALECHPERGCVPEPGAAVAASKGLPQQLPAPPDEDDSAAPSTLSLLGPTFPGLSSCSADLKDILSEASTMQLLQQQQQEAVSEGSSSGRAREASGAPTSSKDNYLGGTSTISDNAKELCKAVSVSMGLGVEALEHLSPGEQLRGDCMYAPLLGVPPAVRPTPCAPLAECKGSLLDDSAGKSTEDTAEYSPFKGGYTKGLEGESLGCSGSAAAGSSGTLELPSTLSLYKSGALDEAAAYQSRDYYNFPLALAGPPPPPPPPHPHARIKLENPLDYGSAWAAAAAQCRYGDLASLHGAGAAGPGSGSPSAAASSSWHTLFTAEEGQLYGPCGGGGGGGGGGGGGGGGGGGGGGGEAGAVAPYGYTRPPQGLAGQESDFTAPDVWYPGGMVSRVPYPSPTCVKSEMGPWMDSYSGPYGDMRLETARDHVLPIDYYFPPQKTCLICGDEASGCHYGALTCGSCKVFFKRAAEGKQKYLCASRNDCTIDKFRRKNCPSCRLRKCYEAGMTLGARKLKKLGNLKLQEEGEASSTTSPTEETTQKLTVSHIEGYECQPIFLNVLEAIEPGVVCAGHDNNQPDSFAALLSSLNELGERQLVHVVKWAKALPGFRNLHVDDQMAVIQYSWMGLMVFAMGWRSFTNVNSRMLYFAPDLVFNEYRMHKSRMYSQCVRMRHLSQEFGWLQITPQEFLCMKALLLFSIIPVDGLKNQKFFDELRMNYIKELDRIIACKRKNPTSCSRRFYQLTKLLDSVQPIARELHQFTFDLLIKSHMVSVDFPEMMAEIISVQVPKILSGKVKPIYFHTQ
Kind of test: MST binding affinity, Psa-AR and AR protein. To be noted: RED-NHS-labeled AR 400 nM, PBS-T, 22 °C, n = 3, read-out: Kd, binding affinity between Psa-AR and AR.
Text: Fig. 3 Polynary nanocomposite (AR: Psa-AR: CRBN) formation. a Dose‒response curve for the binding interaction between Psa-AR and the AR protein; n = 3 per group. b Dose‒response curve for the binding interaction between Psa-AR and the CRBN protein; n = 3 per group. c Dose‒response curve for the binding interaction between the binary complex (Psa-AR: AR) and CRBN, n = 3 per group. d In vitro Psa-AR self-assembly, protein binding and degradation. e Representative 22Rv1 cell CLSM images of FITC-labeled Psa-AR assembly (green channel) interacting with HSP90 (red channel) and its colocalization analysis (1–1’). […] Scale bar: 10 μm.
as §1, with “After incubation for 20 min, the samples were loaded into standard/premium-treated capillaries. All the experiments were performed at 22 °C.” left out

A further test concerns 22Rv1 xenograft tumor. Kind of test: Antitumor efficacy in 22Rv1 xenograft mice. The format is in vivo, BALB/c nude mice. The note with it: dose study, intravenous every 48 h, five cycles, 20 days.

Numbered stars: 1 amine (or outer) side, 2 acyl side, 3 side chain; on linkers, the order of the positions; unused ones are H or OH. Square brackets hold non-standard residues; d marks the D form. Peptide text beside a SMILES is read from it. * marks the point of attachment. X2 = CC1(C)C(=O)N(c2ccc(C#N)c(C(F)(F)F)c2)C(=S)N1c1ccc(C(=O)*)c(F)c1; X1 = O=C1CCC(N2C(=O)c3cccc(N(CC(=O)[*:2])[*:1])c3C2=O)C(=O)N1; EuK = O=C(O)CC[C@H](NC(=O)N[C@@H](CCCCN*)C(=O)O)C(=O)O; 2Nal = N[C@@H](Cc1ccc2ccccc2c1)C(=O)O

PSMA protein, sequence (Q04609 whole entry): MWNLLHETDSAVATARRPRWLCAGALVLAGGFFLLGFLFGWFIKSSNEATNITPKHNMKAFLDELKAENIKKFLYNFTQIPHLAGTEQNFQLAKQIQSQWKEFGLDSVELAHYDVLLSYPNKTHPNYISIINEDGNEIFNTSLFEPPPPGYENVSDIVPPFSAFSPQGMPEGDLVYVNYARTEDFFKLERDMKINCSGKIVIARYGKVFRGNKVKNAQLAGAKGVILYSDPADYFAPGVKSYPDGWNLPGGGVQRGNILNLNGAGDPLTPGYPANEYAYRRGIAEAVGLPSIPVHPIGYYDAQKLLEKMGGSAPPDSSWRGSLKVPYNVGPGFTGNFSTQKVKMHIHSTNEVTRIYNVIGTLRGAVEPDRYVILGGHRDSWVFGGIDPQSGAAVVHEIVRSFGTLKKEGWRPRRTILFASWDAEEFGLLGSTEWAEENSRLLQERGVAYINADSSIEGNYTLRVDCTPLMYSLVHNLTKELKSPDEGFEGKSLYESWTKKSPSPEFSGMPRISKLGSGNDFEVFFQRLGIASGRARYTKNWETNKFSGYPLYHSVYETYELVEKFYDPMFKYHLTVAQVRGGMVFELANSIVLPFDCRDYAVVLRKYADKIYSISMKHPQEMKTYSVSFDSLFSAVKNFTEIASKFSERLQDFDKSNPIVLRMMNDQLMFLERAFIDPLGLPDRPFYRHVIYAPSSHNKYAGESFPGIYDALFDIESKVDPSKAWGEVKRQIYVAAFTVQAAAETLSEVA

For `CC1(C)C(=O)N(c2ccc(C#N)c(C(F)(F)F)c2)C(=S)N1c1ccc(C(=O)NCCCC[C@H](NC(=O)CNc2cccc3c2C(=O)N(C2CCC(=O)NC2=O)C3=O)C(=O)N[C@@H](CS)C(=O)N[C@@H](CCC(N)=O)C(=O)N[C@@H](Cc2ccc(O)cc2)C(=O)N[C@@H](CC(N)=O)C(=O)N[C@@H](CCC(N)=O)C(=O)N[C@@H](Cc2ccc(O)cc2)C(=O)N[C@@H](Cc2ccc(O)cc2)C(=O)N[C@@H](Cc2ccc3ccccc3c2)C(=O)NCCCC[C@H](NC(=O)N[C@@H](CCC(=O)O)C(=O)O)C(=O)O)c(F)c1` (some centres unmarked) [Psa-AR] (H-[X1]K(X2)CQYNQYY[2Nal]-EuK), the Kd at PSMA protein came out at 7.2 nM; on AR protein, 950 nM. The “selectivity ratio between PSMA^low RWPE-1 and PSMA^high 22Rv1 cells, relative to P-AR” value in test [1] (FITC-labeled, 40 µM, 24 h, flow cytometry, n = 3) stood at 13 fold. The “cellular uptake in RWPE-1 cells” value in test [1] (IF, RWPE-1 (PSMA^low) cells) is “low cellular uptake”. Also, the “mean tumor volume at 10 mg/kg” value in the test with 22Rv1 xenograft tumor turned out to be 220 mm^3.
